Data as given in US20260315609A1, “MIXED VASOPRESSIN RECEPTOR AGONIST-ANTAGONIST FOR TREATING END-STAGE LIVER DISEASE AND COMPLICATIONS ASSOCIATED THEREOF” (FERRING B.V., priority 2022, published 2026).
Positions of bridges follow the written chain, without caps; N, C: chain ends. Residues, ends and D or L forms follow the SMILES beside them.

Columns and labels:
[1] = tested on: V1a, V1b, and V2 receptors; details: cited from earlier work
skin blood flow (SBF) = assay: Skin blood flow (SBF), laser Doppler, anesthetized Wistar rats, IV infusion; format: in vivo, rat
Protocol: This study was performed over multiple experiments using a total of 48 adult male Wistar rats. […] Compounds were infused via an IV catheter at six sequentially increasing doses.
(§1) On the day of experimentation animals were anesthetized and instrumented. A tracheostomy was performed to allow assisted respiration and three catheters were placed. Laser Doppler probes were positioned on a shaved portion of the animal's lower abdominal skin for blood-flow measurements. Ventilation was initiated, and baseline readings for the primary parameter of skin blood flow (SBF) were recorded. Readings for the secondary parameters were also recorded: (1) blood lactate concentration, (2) mean arterial pressure (MAP), and (3) blood pH. Data collection was performed continuously for SBF and MAP using NOTOCORD-hem™ (Instem), and blood samples were taken at each compound dose and immediately analyzed using an i-STAT® meter.
After the final dose administration, animals were euthanized and a final SBF measurement was recorded to detect any signal from the flow probe after the animal's heart stopped beating to control for a signal not attributed to blood flow. Animal body temperature, pulse, and ventilation adequacy were monitored throughout the procedure.

blood lactate = assay: Blood lactate concentration, anesthetized Wistar rats, IV infusion; format: in vivo, rat
Protocol: This study was performed over multiple experiments using a total of 48 adult male Wistar rats. […] Compounds were infused via an IV catheter at six sequentially increasing doses. A group of vehicle-administered animals received vehicle throughout the study and data were reported from intervals timed analogously with the dose-response in compound 1-administered animals.
as §1

rV2 receptor = molecular target: T1, rV2 receptor (Rattus norvegicus, UniProt Q00788); assay: Luciferase reporter gene assay, rat V2; format: cell-based; details: read-out: % MPE
T1 construct: expressed in transfected cells; host or cells: HEK-293 cells (ATCC), transient
Protocol: (§2) Cell Lines. Studies were conducted with cell lines expressing rat (r) or human (h) Via, V1b, V2, or OT receptors. For the experiments with human receptors, human embryonic kidney (HEK)-flp-in cells stably expressing the lacZ-Zeocin™ fusion gene were used for expression of hV1a and hV1b. These cells were designed for use with the Flp-In™ expression vector containing the gene of interest (here hV1a or hV1b) and the Flp recombinase expression plasmid, pOG44. For hV2 and hOTR, HEK-293 cells transiently expressing hV2 were used.
(§3) Functional Cell-Based Assays.

rOTR = molecular target: T2, rOTR (Rattus norvegicus, UniProt P70536); assay: Luciferase reporter gene assay, rat OT; format: cell-based; details: read-out: % MPE
T2 construct: expressed in transfected cells
T2 sequence (P70536 1-388): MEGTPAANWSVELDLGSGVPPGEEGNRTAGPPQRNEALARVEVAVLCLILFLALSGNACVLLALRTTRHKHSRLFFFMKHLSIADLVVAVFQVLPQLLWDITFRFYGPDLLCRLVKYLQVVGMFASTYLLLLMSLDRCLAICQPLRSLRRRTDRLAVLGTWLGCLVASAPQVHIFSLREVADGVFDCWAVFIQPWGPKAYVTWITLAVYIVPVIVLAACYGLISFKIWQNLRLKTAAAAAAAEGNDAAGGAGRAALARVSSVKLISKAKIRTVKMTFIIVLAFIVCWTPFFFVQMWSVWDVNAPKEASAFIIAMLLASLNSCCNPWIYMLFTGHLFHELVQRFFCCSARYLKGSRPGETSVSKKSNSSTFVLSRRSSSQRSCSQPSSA
Protocol: as §2, §3

[2] = tested on: methionine/choline-deficient (MCD) diet rats; assay: MAP / ΔMAP in methionine/choline-deficient (MCD) diet rats; format: in vivo, rat; details: for Δ MAP (mean): 100 μg/kg, IA, MCD diet rats
Protocol: The terlipressin dose was 100 μg/kg.
Data were evaluated as change […] from baseline.

[3] = tested on: methionine/choline-deficient (MCD) diet rats; assay: ΔPP in methionine/choline-deficient (MCD) diet rats; format: in vivo, rat; details: 100 μg/kg, IA, MCD diet rats
[4] = tested on: mean arterial pressure (MAP); assay: Telemetry: ΔMAP in cynomolgus monkeys, Compound 1 (SC) versus terlipressin (IV); format: in vivo, cynomolgus monkey
Protocol: The in-life portion of the study was performed over multiple dosing sessions using six non-naive adult male cynomolgus monkeys. Animals were previously (3-4 weeks before study start) instrumented with indwelling pressure telemetry devices and trained to be restrained in chairs. Animals had access to food and drinking water ad libitum.
Stock solutions were diluted in saline on the day of administration. Animals with indwelling pressure telemetry devices were trained to be restrained in chairs for 8-h periods.
On the day of administration, animals were restrained, and telemetric measurements were collected continuously starting ≥2 h before administration. Baseline values of arterial pressure (diastolic and systolic), heart rate, and body temperature were obtained.
The data reported herein were collected over 19 dosing sessions of four animals each, using a total of six monkeys. Animals were repeat dosed in a crossover design with at least one animal receiving vehicle for each round; the animal receiving vehicle was varied between rounds. A 48- to 72-h washout period was used between dosing sessions. Animals were observed by camera for ~1 h before dosing (covering the baseline period) and up to 3 h after dosing.

T1 sequence (Q00788 whole entry): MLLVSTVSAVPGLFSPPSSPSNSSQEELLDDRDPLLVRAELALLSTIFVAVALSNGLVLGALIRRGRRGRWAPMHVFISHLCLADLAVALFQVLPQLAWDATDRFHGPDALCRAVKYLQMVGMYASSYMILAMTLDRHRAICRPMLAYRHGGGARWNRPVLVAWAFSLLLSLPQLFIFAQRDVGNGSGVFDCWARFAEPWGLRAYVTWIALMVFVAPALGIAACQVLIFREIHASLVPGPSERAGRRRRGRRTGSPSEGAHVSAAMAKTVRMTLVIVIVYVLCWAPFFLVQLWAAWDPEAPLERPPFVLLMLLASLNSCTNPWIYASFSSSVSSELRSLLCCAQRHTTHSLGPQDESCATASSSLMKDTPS

NCCCC[C@H](NC(=O)[C@@H]1CCCN1C(=O)[C@@H]1CSSC[C@H](N)C(=O)N[C@@H](Cc2ccc(O)cc2)C(=O)N[C@@H](Cc2ccccc2)C(=O)N[C@@H](CCC(N)=O)C(=O)N[C@@H](CC(N)=O)C(=O)N1)C(=O)NCC(N)=O [Lysine vasopressin (LVP), Lysine vasopressin]
receptor agonism type ([1]; V1a, V1b, and V2 receptors): full agonist

NC(=O)CC[C@@H]1NC(=O)[C@H](Cc2ccccc2)NC(=O)[C@H](Cc2ccc(O)cc2)NC(=O)[C@@H](N)CSSC[C@@H](C(=O)N2CCC[C@H]2C(=O)N[C@@H](CCCN=C(N)N)C(=O)NCC(N)=O)NC(=O)[C@H](CC(N)=O)NC1=O [AVP, arginine vasopressin, reference compound]
SBF ED50 (skin blood flow (SBF)): 12.6 pmol/kg/min
decrease in skin blood flow, approximate maximum (skin blood flow (SBF)): about 90%
greatest percent change from baseline in skin flow (skin blood flow (SBF)): −89.5%
blood lactate concentration (blood lactate; 3 pmoL/kg/min IV): 1.34 mM
blood lactate concentration (blood lactate; 600 pmoL/kg/min IV): 4.27 mM
increase in blood lactate levels (blood lactate; IV): ≥ 2 fold
effect on blood lactate concentration (blood lactate; IV, up to maximum dose tested): significantly elevated
Emax (rV2 receptor): 98%
Emax (rOTR): 82%

NCCCC[C@H](NC(=O)[C@@H]1CCCN1C(=O)[C@@H]1CSSC[C@H](NC(=O)CNC(=O)CNC(=O)CN)C(=O)N[C@@H](Cc2ccc(O)cc2)C(=O)N[C@@H](Cc2ccccc2)C(=O)N[C@@H](CCC(N)=O)C(=O)N[C@@H](CC(N)=O)C(=O)N1)C(=O)NCC(N)=O [Terlipressin, reference compound] (H-GGGCYFQNCPKG-NH2; disulfide 4-9)
serious adverse events ([1]; gastrointestinal disorders, sepsis, respiratory failure): associated with serious adverse events
effect on ascites formation ([1]; non-selective full agonist, continuous i.v. infusion): reduced ascites formation
short-term mortality ([1]; plus albumin, HRS-AKI, versus placebo): reduces short-term mortality
Δ MAP (mean) ([2]; 0 min): 0.0 mmHg
Δ MAP (mean) ([2]; 1 min): 6.1 mmHg
Δ MAP (mean) ([2]; 10 min): 32.0 mmHg
Δ MAP (mean) ([2]; 90 min): 5.2 mmHg
rapid increase in MAP, up to ([2]; intra-arterial, FIG. 34): about 35 mmHg
Δ PP (mean) ([3]; 0 min): 0.0 mmHg
Δ PP (mean) ([3]; 1 min): −1.5 mmHg
Δ PP (mean) ([3]; 2 min): −2.1 mmHg
Δ PP (mean) ([3]; 3 min): −2.3 mmHg
Δ PP (mean) ([3]; 5 min): −2.4 mmHg
Δ PP (mean) ([3]; 7 min): −2.5 mmHg
Δ PP (mean) ([3]; 10 min): −2.4 mmHg
Δ PP (mean) ([3]; 15 min): −2.5 mmHg
Δ PP (mean) ([3]; 20 min): −2.6 mmHg
Δ PP (mean) ([3]; 30 min): −2.5 mmHg
Δ PP (mean) ([3]; 60 min): −2.8 mmHg
Δ PP (mean) ([3]; 90 min): −0.8 mmHg
average increase in MAP, 30 min to 5 h ([4]; IV 0.03 mg/kg): 6.0 mmHg
maximum MAP values (increase from baseline) ([4]; IV 0.03 mg/kg (vehicle 22.2)): 29.6±3.6 mmHg
average increase in MAP, 30 min to 5 h ([4]; IV 0.09 mg/kg): 5.8 mmHg
maximum MAP values (increase from baseline) ([4]; IV 0.09 mg/kg (vehicle 22.2)): 29.9±6.2 mmHg
average increase in MAP, 30 min to 5 h ([4]; IV 0.17 mg/kg): 14.6 mmHg
maximum MAP values (increase from baseline) ([4]; IV 0.17 mg/kg (vehicle 22.2)): 50.8±5.6 mmHg
average increase in MAP, 30 min to 5 h ([4]; IV 0.34 mg/kg): 14.7 mmHg
maximum MAP values (increase from baseline) ([4]; IV 0.34 mg/kg (vehicle 22.2)): 41.2±7.5 mmHg
time of maximum ΔMAP ([4]; IV, all groups): 5 to 30 min
ΔMAP by 150 min ([4]; IV, all groups): negligible
